Measurements as given in patent US20050074850A1, “Novel calcium channels and uses thereof” (Synta Pharmaceuticals Corp., priority 2003, published 2005).

Key:
L-type calcium channels = assay: DM-BODIPY binding competition by flow cytometry in T cell leukemia cell lines; parameters: species or system human; settings: ten-fold excess (S)-(−)-Bay K8644 over 1 μM DM-BODIPY; Jurkat, MOLT-4, CEM, Loucy, SUP-T1
Description: In another method of determining whether a test compound is binding L-type channels, competition with DM-BODIPY dyes is used. Such assays employ DM-BODIPY (Molecular Probes, Eugene, […].), a dihydropyridine analog that is covalently attached to the BODIPY dye. The DM-BODIPY dye binds to L-type calcium channels on the cell surface and can be assessed by flow-cytometry. Accordingly, a test compound can be used in a competition assay with a DM-BODIPY dye. If the test compound is able to compete for binding of the DM-BODIPY dye to a cell expressing an LVCa(v) polypeptide, the test compound is a candidate compound for binding to the LVCa(v) polypeptide and being a modulator of the activity of that channel.
To ascertain the levels of L-type channel expression at the cell surface, cells were stained with an ester form of DM-BODIPY (Molecular Probes, Inc., Eugene, Oreg., catalog no. D-2183) at final concentration of 1 μM in PBS (phosphate buffered saline). Competition of DM-BODIPY binding was performed with a ten-fold excess (S)-(−)-Bay K8644 (Sigma-Aldrich). Analysis was performed using flow cytometry (Becton Dickinson). FIG. 22A illustrates the results of the DM-BODIPY binding experiments. […]

L-type calcium channel = assay: Whole-cell patch clamp of L-type currents in Jurkat T cells; format: cell-based, human
Experimental: In these patch clamp experiments, Jurkat cells that were grown in suspension cultures were washed once with standard external solution and plated directly onto the experimental bath chamber. Cells were kept in a standard modified Ringer's solution of the following composition (in mM): […] pipette-filling solutions for voltage-gated L-type channels contained (in mM): […], the above solution was replaced by an otherwise identical extracellular solution in which 10 μM Bay K was added to the bath. Intracellular pipette-filling solutions for voltage-gated L-type channels in some cases contained (in mM): Cs-glutamate 120, NaCl 8, MgCl2 1, MgATP 2, NaGTP 0.3, Cs-BAPTA 10, Hepes-CsOH 10, pH 7.2. Patch clamp experiments were performed in the tight-seal whole-cell configuration at 24±2° C. High-resolution current recordings were acquired by a computer-based patch clamp amplifier system (EPC-9, HEKA, Lambrecht, Germany). Patch pipettes had resistances between 2-4 MΩ after filling with the standard intracellular solution. For L-type current measurements the holding potential was −80 mV and the duration of the ramp was 100 ms for optimal L-type current size. All voltages were corrected for a liquid junction potential of 10 mV between external and internal solutions. Currents were filtered at 2.3 kHz and digitized at 100 μs intervals. Capacitive currents and series resistance were determined and corrected before each voltage ramp using the automatic capacitance compensation of the EPC-9. For ICRAC analysis, the very first ramps prior to current activation were digitally filtered at 2 kHz, pooled and used for leak-subtraction of all subsequent current records. The low-resolution temporal development of currents at a given potential was extracted from the leak-corrected individual ramp current records by measuring the current amplitudes at voltages of −80 mV or +80 mV, respectively. Similarly, one of the first ramps could be used as leak-subtraction for L-type currents, as the currents developed over a time course of 6-8 seconds, indicating recovery from inactivation. Where applicable, statistical errors of averaged data are given as means±S.E.M. with n determinations and statistical significance was assessed by Student's t-test.
For measurements of the L-type current with barium as the charge carrier, whole cell voltage-clamp recordings were performed using an Axopatch 200 amplifier (Axon Instruments) in a bath consisting of 135 mM choline Cl, 10 mM HEPES, 1 mM MgCl2 and 20 mM BaCl2, adjusted to a pH of 7.2 with CsOH. The internal solution consisted of 135 mM CsCl, 10 mM HEPES, 1 mM EGTA, 1 mM EDTA, and 4 mM Mg-ATP, adjusted to a pH of 7.2 with CsOH. Pclamp 8 software was used for data acquisition (Axon Instruments). For square pulse protocols, data were filtered at 2 kHz and sampled at 10 kHz. Patch electrodes were 3.8-4.4 MΩ when filled with internal solution. Leak subtraction was performed online using a P/-4 protocol. 75% series resistance compensation was used with a 10 μs lag. Statistical references indicate the mean±s.e. After forming the whole-cell patch, cells were lifted off the bottom of the dish and placed in front of an array of perfusion tubes made of 250 μm internal diameter quartz tubing (Polymicro Technologies, Phoenix, Ariz.) connected by Teflon tubing to glass reservoirs. […]

L-type channels [1] = assay: Calcium flux in siRNA-expressing Jurkat cells; format: cell-based, human; settings: pool of zeocin-resistant Jurkat clones
Experimental: To assess the effect of expressing the mutant three-domain Ca(v)1.3 on calcium influx in cells, bulk calcium assays were performed using fura-2 (Molecular Probes) ratiometric imaging according to the manufacturer's recommendations. Fura-2 is a calcium-sensitive dye. When excited at short ultra-violet wavelengths (340 nm) the fluorescence of fura-2 increases with increasing calcium concentration, whereas fluorescence decreases with increasing calcium concentration at longer wavelengths (380 nm). By forming a ratio of successive images obtained at each wavelength, a measure of calcium concentration inside the fura-2 loaded cell is obtained.
(§1) This consensus sequence was used in the design of a sequence that would express an siRNA for stable expression of a hairpin loop containing the consensus sequence. The sequence was cloned into the psiRNA-hHlzeo vector (Invitrogen, San Diego, Calif.), the sequence was verified, and Jurkat cells were transfected with it. To select clones that were positive for expression of the hairpin, 400 micrograms/ml of zeocin was added 24 hours after transfection. […] Independent, individual clones were also generated in parallel. […] Thus, loss of L-type channel expression also correlates with decreased proliferation of Jurkat T cells.

L-type channels [2] = assay: DM-BODIPY staining (flow cytometry) of siRNA-expressing Jurkat cells; format: cell-based, human
Experimental: as §1
First, control wild type (WT) and L-type siRNA-expressing (LT1) Jurkat T cells were stained with DM-BODIPY and analyzed by flow cytometry (Un indicates unstained cells). The LT1 cells were transfected with an siRNA sequence that targets the majority of L-type channels, and was designed based on sequence consensus of the human L-type calcium channels.

Jurkat T cells = assay: Growth and cell numbers of siRNA-expressing Jurkat clones; format: cell-based, human
Experimental: as §1
Jurkat cells were stably transfected with each of the siRNA constructs and pools of clones of each were analyzed. RT-PCR was performed on samples from the clones to detect expression of Ca(v)1.3.

How did the “DM-BODIPY binding competed by BayK8644” value (L-type calcium channels) turn out when `COC(=O)C1=C(C)NC(C)=C([N+](=O)[O-])[C@H]1c1ccccc1C(F)(F)F` [BayK8644, (S)-(−)-Bay K8644] was run?
Its value is “competed”.

And the “reversibility of agonist effect when washed out” value (L-type calcium channel; Jurkat cells)?
Its value is “reversible”.

And the “cells with discernible DHPR (L-type calcium channel) currents” value (L-type calcium channel; Jurkat cells tested in the presence of BayK8644)?
Its value is “Five of eleven”.

What about the average current densities (L-type calcium channel; Jurkat cells, 10 μM BayK8644, calcium as charge carrier, n=5, +/− s.e.m.) of the same compound?
The average current densities was 1+/−0.3 pA/pF.

What about the peak current increase (L-type calcium channel; Jurkat cells, in presence of the L-type agonist, calcium as charge carrier) of the same compound?
The peak current increase was “five-fold”.

For `CCCCCCCCCCCCCC(=O)O[C@@H]1[C@@H](C)[C@@]2(O)[C@@H](C=C(CO)C[C@]3(O)C(=O)C(C)=C[C@@H]23)[C@@H]2C(C)(C)[C@]12OC(C)=O` [PMA, phorbol 12-myristate 13-acetate], which L-type current amplitude (L-type calcium channel; Jurkat cells pre-treated with PMA) is on record?
Its L-type current amplitude is “significantly increased”.

Which results are given for “LT1 (DNA AACTGTGAGCTGGACAAGAA; chemistry not given here)”?
calcium flux (L-type channels [1]): marked decrease; reduction in DM-BODIPY binding (L-type channels [2]; independent, individual Jurkat clones): approximately 90%; DM-BODIPY binding (L-type channels [2]; pool of zeocin-resistant Jurkat clones): decrease; decrease of surface expression of L-type channels (L-type channels [2]; stable siRNA expression in Jurkat T cells, DM-BODIPY staining): about 90%; growth of clones (Jurkat T cells; individual siRNA-expressing Jurkat clones): slow rate of growth; growth of clones (Jurkat T cells; individual siRNA-expressing Jurkat clones, listed as consensus sequence): grew very slowly; growth of clones (Jurkat T cells; pool of zeocin-resistant Jurkat clones, bulk culture): grew more slowly
